Format in all cases: biochemical
Test [1] deals with T1, JAK2 (Homo sapiens, UniProt O60674).
T1 construct: All four purified enzymes contain only the catalytic domain; His (N); purchased Carna Biosciences, Inc; host or cells: baculovirus expression system
Nature of the test: JAK2 kinase assay (HTRF, inhibition of phosphorylation of a synthetic peptide). The conditions noted are these: catalytic domain, His-tag; 4 μM ATP (Km); read-out: JAK2 kinase inhibitory activity (EC50). The gist of the method:
(§1)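 Baculovirus-expressed human catalytic domains (GST-JAK1, GST-TYK2, His-JAK2, His-JAK3) phosphorylated 1 μM TK substrate-biotin at ATP Km (JAK1 7 μM, JAK2 4 μM, JAK3 2 μM, TYK2 13 μM) in pH 7.0 Hepes for 20-30 min at RT, 0.75% DMSO. EDTA stop, then overnight streptavidin-XL665/cryptate-antibody detection and HTRF read.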
For orientation: Time-resolved FRET reads energy transfer from a long-lived donor to a nearby acceptor.

Test [2] addresses T2, TYK2 (Homo sapiens, UniProt P29597).
T2 construct: JAK1 (aa 850-1154) and TYK2 (aa 871-1187) are expressed with an N-terminally fused GST-tag; GST (N); purchased Carna Biosciences, Inc; host or cells: baculovirus expression system
T2 sequence (P29597 871-1187): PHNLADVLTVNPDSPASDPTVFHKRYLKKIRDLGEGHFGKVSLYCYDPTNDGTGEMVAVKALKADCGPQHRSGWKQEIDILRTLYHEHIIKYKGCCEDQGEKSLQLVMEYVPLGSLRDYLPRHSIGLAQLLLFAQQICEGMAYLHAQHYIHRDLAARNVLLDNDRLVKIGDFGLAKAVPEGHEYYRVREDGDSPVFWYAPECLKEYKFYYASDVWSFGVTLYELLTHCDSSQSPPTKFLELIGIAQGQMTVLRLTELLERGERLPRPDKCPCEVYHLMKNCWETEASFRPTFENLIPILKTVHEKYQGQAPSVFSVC
The experiment in a line: TYK2 kinase assay (HTRF, inhibition of phosphorylation of a synthetic peptide). The conditions noted are these: catalytic domain aa 871-1187, GST-tag; 13 μM ATP (Km); read-out: TYK2 kinase inhibitory activity (EC50). The method in brief:
as §1

Test [3] concerns the target T3, JAK3 (Homo sapiens, UniProt P52333).
T3 construct: All four purified enzymes contain only the catalytic domain; His (N); purchased Carna Biosciences, Inc; host or cells: baculovirus expression system
The experiment in a line: JAK3 kinase assay (HTRF, inhibition of phosphorylation of a synthetic peptide). The settings on record: catalytic domain, His-tag; 2 μM ATP (Km); read-out: JAK3 kinase inhibitory activity (EC50). The gist of the method: as §1

Test [4] deals with T4, JAK1 (Homo sapiens, UniProt P23458).
T4 construct: JAK1 (aa 850-1154) and TYK2 (aa 871-1187) are expressed with an N-terminally fused GST-tag; GST (N); purchased Carna Biosciences, Inc; host or cells: baculovirus expression system
The experiment in a line: JAK1 kinase assay (HTRF, inhibition of phosphorylation of a synthetic peptide). The settings on record: catalytic domain aa 850-1154, GST-tag; 7 μM ATP (Km); read-out: JAK1 kinase inhibitory activity (EC50). The method in brief:
as §1

T1 sequence (O60674 849-1124 limits assumed): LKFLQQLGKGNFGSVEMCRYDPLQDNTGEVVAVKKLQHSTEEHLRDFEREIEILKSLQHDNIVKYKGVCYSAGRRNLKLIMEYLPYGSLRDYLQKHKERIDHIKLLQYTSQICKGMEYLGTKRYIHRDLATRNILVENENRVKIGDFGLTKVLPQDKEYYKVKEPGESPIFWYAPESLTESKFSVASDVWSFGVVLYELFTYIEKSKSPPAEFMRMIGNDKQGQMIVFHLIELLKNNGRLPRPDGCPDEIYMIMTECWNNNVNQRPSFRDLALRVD
T3 sequence (P52333 822-1111 limits assumed): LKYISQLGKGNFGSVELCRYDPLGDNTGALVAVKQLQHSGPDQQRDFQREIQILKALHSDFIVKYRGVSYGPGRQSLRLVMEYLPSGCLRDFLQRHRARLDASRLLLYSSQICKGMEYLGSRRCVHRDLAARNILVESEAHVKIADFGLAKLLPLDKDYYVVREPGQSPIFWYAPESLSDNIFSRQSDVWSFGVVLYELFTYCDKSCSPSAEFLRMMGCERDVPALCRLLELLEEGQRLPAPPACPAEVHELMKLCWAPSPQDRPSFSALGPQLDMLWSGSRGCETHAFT
T4 sequence (P23458 850-1154): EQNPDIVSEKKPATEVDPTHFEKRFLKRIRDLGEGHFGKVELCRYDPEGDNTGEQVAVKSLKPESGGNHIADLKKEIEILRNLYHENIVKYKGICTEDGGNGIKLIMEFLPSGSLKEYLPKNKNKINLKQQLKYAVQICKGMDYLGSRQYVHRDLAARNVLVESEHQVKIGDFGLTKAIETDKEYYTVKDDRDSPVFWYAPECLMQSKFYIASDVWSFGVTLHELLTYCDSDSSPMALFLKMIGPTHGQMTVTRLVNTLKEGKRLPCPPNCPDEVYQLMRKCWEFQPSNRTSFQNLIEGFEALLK

For the compound `N#CCCNS(=O)(=O)c1ccc(C(=O)N2CCN(c3ncnc4[nH]ccc34)CC3(CC3)C2)cc1` [Example 69, N-(2-cyanoethyl)-4-[5-(7H-pyrrolo[2,3-d]pyrimidin-4-yl)-5,8-diazaspiro[2.6]nonane-8-carbonyl]benzenesulfonamide], the EC50 in test [1] is 100 to 1000 nM; in test [2], greater than 1000 nM; in test [3], 100 to 1000 nM; in test [4] it was 100 to 1000 nM.

Consider `O=C(c1ccc(S(=O)(=O)NCC2CCCO2)cc1)N1CCN(c2ncnc3[nH]ccc23)CC2(CC2)C1` (stereo not shown) [Example 70], for which the EC50 in test [1] is 100 to 1000 nM; in test [2] it was greater than 1000 nM; in test [3], 100 to 1000 nM; in test [4], 100 to 1000 nM.

In the case of `Cc1cc(S(N)(=O)=O)ccc1C(=O)N1CCN(c2ncnc3[nH]ccc23)CC2(CC2)C1` [Example 71, 3-methyl-4-[5-(7H-pyrrolo[2,3-d]pyrimidin-4-yl)-5,8-diazaspiro[2.6]nonane-8-carbonyl]benzenesulfonamide], the half-maximal effective concentration (EC50) in test [1] is 100 to 1000 nM; in test [2] it was greater than 1000 nM; in test [3], 100 to 1000 nM; in test [4], 100 to 1000 nM.

As to `CNS(=O)(=O)c1ccc(C(=O)N2CCN(c3ncnc4[nH]ccc34)CC3(CC3)C2)cc1` [Example 72, N-methyl-4-[5-(7H-pyrrolo[2,3-d]pyrimidin-4-yl)-5,8-diazaspiro[2.6]nonane-8-carbonyl]benzenesulfonamide], the EC50 in test [1] was less than 100 nM; in test [2], greater than 1000 nM; in test [3], 100 to 1000 nM; in test [4] it was 100 to 1000 nM.

With `NS(=O)(=O)c1cccc(C(=O)N2CCN(c3ncnc4[nH]ccc34)CC3(CC3)C2)c1` [Example 73, 3-[5-(7H-pyrrolo[2,3-d]pyrimidin-4-yl)-5,8-diazaspiro[2.6]nonane-8-carbonyl]benzenesulfonamide], the concentration giving a half-maximal response (EC50) in test [1] is 100 to 1000 nM; in test [2] it was greater than 1000 nM; in test [3] it was 100 to 1000 nM; in test [4] it was 100 to 1000 nM.

`COCCNS(=O)(=O)c1ccc(C(=O)N2CCN(c3ncnc4[nH]ccc34)CC3(CC3)C2)cc1` [Example 74, N-(2-methoxyethyl)-4-[5-(7H-pyrrolo[2,3-d]pyrimidin-4-yl)-5,8-diazaspiro[2.6]nonane-8-carbonyl]benzenesulfonamide]: the 50% effective concentration (EC50) in test [1] is 100 to 1000 nM; in test [2], greater than 1000 nM; in test [3], 100 to 1000 nM; in test [4] it was 100 to 1000 nM.

`NS(=O)(=O)c1cc(C(=O)N2CCN(c3ncnc4[nH]ccc34)CC3(CC3)C2)cs1` [Example 75]: the EC50 is less than 100 nM in test [1], 100 to 1000 nM in test [2], 100 to 1000 nM in test [3] and less than 100 nM in test [4].

With `NS(=O)(=O)c1ccc(CC(=O)N2CCN(c3ncnc4[nH]ccc34)CC3(CC3)C2)s1` [Example 76, 5-[2-oxo-2-[5-(7H-pyrrolo[2,3-d]pyrimidin-4-yl)-5,8-diazaspiro[2.6]nonan-8-yl]ethyl]thiophene-2-sulfonamide], the EC50 in test [1] was less than 100 nM; in test [2], 100 to 1000 nM; in test [3], less than 100 nM; in test [4], less than 100 nM.

For the compound `O=C(Cc1ccc(-c2nn[nH]n2)cc1)N1CCN(c2ncnc3[nH]ccc23)CC2(CC2)C1` [Example 77, 1-[5-(7H-pyrrolo[2,3-d]pyrimidin-4-yl)-5,8-diazaspiro[2.6]nonan-8-yl]-2-[4-(2H-tetrazol-5-yl)phenyl]ethanone], the EC50 in test [1] was less than 100 nM; in test [2] it was 100 to 1000 nM; in test [3] it was 100 to 1000 nM; in test [4], less than 100 nM.

As to `CCCc1csc(C(=O)N2CCN(c3ncnc4[nH]ccc34)CC3(CC3)C2)c1` [Example 78, (4-propyl-2-thienyl)-[5-(7H-pyrrolo[2,3-d]pyrimidin-4-yl)-5,8-diazaspiro[2.6]nonan-8-yl]methanone], the 50% effective concentration (EC50) in test [1] was 100 to 1000 nM; in test [2] it was greater than 1000 nM; in test [3] it was 100 to 1000 nM; in test [4], 100 to 1000 nM.

On to `Cc1cc(CC(=O)N2CCN(c3ncnc4[nH]ccc34)CC3(CC3)C2)no1` [Example 87, 2-(5-methylisoxazol-3-yl)-1-[5-(7H-pyrrolo[2,3-d]pyrimidin-4-yl)-5,8-diazaspiro[2.6]nonan-8-yl]ethanone], for which the half-maximal effective concentration (EC50) is less than 100 nM in test [1], 100 to 1000 nM in test [2], 100 to 1000 nM in test [3] and less than 100 nM in test [4].

In the case of `O=C(Nc1ccccc1)N1CCCN(c2ncnc3[nH]ccc23)CC12CC2` [Example 90, N-phenyl-5-(7H-pyrrolo[2,3-d]pyrimidin-4-yl)-5,9-diazaspiro[2.6]nonane-9-carboxamide], the EC50 in test [1] is 100 to 1000 nM; in test [2] it was greater than 1000 nM; in test [3], 100 to 1000 nM; in test [4], less than 100 nM.

In the case of `S=C(Nc1ccccc1)N1CCCN(c2ncnc3[nH]ccc23)CC12CC2` [Example 91, N-phenyl-5-(7H-pyrrolo[2,3-d]pyrimidin-4-yl)-5,9-diazaspiro[2.6]nonane-9-carbothioamide], the EC50 is less than 100 nM in test [1], greater than 1000 nM in test [2], 100 to 1000 nM in test [3] and less than 100 nM in test [4].

For `O=C(CC1CCCC1)N1CCCN(c2ncnc3[nH]ccc23)CC12CC2` [Example 92, 2-cyclopentyl-1-[5-(7H-pyrrolo[2,3-d]pyrimidin-4-yl)-5,9-diazaspiro[2.6]nonan-9-yl]ethanone], the EC50 in test [1] was 100 to 1000 nM; in test [2], greater than 1000 nM; in test [3] it was 100 to 1000 nM; in test [4], less than 100 nM.

In the case of `O=C(C1CCCCC1)N1CCCN(c2ncnc3[nH]ccc23)CC12CC2` [Example 93, cyclohexyl-[5-(7H-pyrrolo[2,3-d]pyrimidin-4-yl)-5,9-diazaspiro[2.6]nonan-9-yl]methanone], the concentration for a half-maximal effect (EC50) in test [1] is less than 100 nM; in test [2], 100 to 1000 nM; in test [3] it was 100 to 1000 nM; in test [4] it was less than 100 nM.

Consider `Cc1ccc(S(=O)(=O)N2CCCN(c3ncnc4[nH]ccc34)CC23CC3)cc1` [Example 94, 4-[9-(p-tolylsulfonyl)-5,9-diazaspiro[2.6]nonan-5-yl]-7H-pyrrolo[2,3-d]pyrimidine], for which the EC50 in test [1], in test [2], in test [3] and in test [4] was greater than 1000 nM throughout.

For the compound `S=C(CC1CCCC1)N1CCCN(c2ncnc3[nH]ccc23)CC12CC2` [Example 95, 2-cyclopentyl-1-[5-(7H-pyrrolo[2,3-d]pyrimidin-4-yl)-5,9-diazaspiro[2.6]nonan-9-yl]ethanethione], the half-maximal effective concentration (EC50) in test [1] is 100 to 1000 nM; in test [2], greater than 1000 nM; in test [3] it was 100 to 1000 nM; in test [4], less than 100 nM.

As for `CCCCS(=O)(=O)N1CCN(c2ncnc3[nH]ccc23)CC2(CC2)C1` [Example 97, 4-(8-butylsulfonyl-5,8-diazaspiro[2.6]nonan-5-yl)-7H-pyrrolo[2,3-d]pyrimidine], the EC50 in test [1] is 100 to 1000 nM; in test [2], greater than 1000 nM; in test [3], greater than 1000 nM; in test [4] it was 100 to 1000 nM.

In the case of `Cc1ccc(S(=O)(=O)N2CC3(CC3)CN(c3ncnc4[nH]ccc34)CC2C)cc1` (stereo not shown) [Example 98, 4-[7-methyl-8-(p-tolylsulfonyl)-5,8-diazaspiro[2.6]nonan-5-yl]-7H-pyrrolo[2,3-d]pyrimidine], the EC50 in test [1], in test [2], in test [3] and in test [4] was greater than 1000 nM each time.

As to `CC1CN(c2ncnc3[nH]ccc23)CC2(CC2)CN1C(=O)Nc1ccccc1` (stereo not shown) [Example 99, 7-methyl-N-phenyl-5-(7H-pyrrolo[2,3-d]pyrimidin-4-yl)-5,8-diazaspiro[2.6]nonane-8-carboxamide], the EC50 in test [1], in test [2], in test [3] and in test [4] was greater than 1000 nM each time.

Regarding `N#Cc1ccc(C(=O)C(=O)N2CCN(c3ncnc4[nH]ccc34)CC3(CC3)C2)cc1` [Example 100, 4-[2-oxo-2-[5-(7H-pyrrolo[2,3-d]pyrimidin-4-yl)-5,8-diazaspiro[2.6]nonan-8-yl]acetyl]benzonitrile], the EC50 was less than 100 nM in test [1], greater than 1000 nM in test [2], greater than 1000 nM in test [3] and less than 100 nM in test [4].

For `NS(=O)(=O)c1ccc2[nH]c(C(=O)N3CCN(c4ncnc5[nH]ccc45)CC4(CC4)C3)cc2c1` [Example 101, 2-[5-(7H-pyrrolo[2,3-d]pyrimidin-4-yl)-5,8-diazaspiro[2.6]nonane-8-carbonyl]-1H-indole-5-sulfonamide], the EC50 in test [1] was less than 100 nM; in test [2], 100 to 1000 nM; in test [3], 100 to 1000 nM; in test [4], less than 100 nM.

A word on the EC50: it is the concentration at which the effect is half-maximal.

Values taken from patent US9586961B2, “Homopiperazine derivatives as protein tyrosine kinase inhibitors and pharmaceutical use thereof” (LEO PHARMA A/S, priority 2010, dated 2017).
